In patent publication US10758534B2 (Vertex Pharmaceuticals Incorporated, priority 2014, dated 2020):

What follows are compounds tested against T1, F508del (Homo sapiens, UniProt P13569, DEL508-508) (assay: Protocol 1: membrane potential optical assay (FLIPR III, voltage sensing dye), identification of potentiator compounds). Details: Table 3, compounds of Table 1.
T1 construct: expressed in transfected cells
Type: cell-based
Outline: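 NIH3T3 F508del cells, 27° C × 24 hrs; compound/DMSO pretreat → redistribution dye load → single forskolin addition with Cl⁻ gradient (gluconate-substituted bath, HEPES pH 7.4). FLIPR III membrane-potential fluorescence read.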

T1 sequence (P13569 with tags, fused parts or gaps DEL508-508): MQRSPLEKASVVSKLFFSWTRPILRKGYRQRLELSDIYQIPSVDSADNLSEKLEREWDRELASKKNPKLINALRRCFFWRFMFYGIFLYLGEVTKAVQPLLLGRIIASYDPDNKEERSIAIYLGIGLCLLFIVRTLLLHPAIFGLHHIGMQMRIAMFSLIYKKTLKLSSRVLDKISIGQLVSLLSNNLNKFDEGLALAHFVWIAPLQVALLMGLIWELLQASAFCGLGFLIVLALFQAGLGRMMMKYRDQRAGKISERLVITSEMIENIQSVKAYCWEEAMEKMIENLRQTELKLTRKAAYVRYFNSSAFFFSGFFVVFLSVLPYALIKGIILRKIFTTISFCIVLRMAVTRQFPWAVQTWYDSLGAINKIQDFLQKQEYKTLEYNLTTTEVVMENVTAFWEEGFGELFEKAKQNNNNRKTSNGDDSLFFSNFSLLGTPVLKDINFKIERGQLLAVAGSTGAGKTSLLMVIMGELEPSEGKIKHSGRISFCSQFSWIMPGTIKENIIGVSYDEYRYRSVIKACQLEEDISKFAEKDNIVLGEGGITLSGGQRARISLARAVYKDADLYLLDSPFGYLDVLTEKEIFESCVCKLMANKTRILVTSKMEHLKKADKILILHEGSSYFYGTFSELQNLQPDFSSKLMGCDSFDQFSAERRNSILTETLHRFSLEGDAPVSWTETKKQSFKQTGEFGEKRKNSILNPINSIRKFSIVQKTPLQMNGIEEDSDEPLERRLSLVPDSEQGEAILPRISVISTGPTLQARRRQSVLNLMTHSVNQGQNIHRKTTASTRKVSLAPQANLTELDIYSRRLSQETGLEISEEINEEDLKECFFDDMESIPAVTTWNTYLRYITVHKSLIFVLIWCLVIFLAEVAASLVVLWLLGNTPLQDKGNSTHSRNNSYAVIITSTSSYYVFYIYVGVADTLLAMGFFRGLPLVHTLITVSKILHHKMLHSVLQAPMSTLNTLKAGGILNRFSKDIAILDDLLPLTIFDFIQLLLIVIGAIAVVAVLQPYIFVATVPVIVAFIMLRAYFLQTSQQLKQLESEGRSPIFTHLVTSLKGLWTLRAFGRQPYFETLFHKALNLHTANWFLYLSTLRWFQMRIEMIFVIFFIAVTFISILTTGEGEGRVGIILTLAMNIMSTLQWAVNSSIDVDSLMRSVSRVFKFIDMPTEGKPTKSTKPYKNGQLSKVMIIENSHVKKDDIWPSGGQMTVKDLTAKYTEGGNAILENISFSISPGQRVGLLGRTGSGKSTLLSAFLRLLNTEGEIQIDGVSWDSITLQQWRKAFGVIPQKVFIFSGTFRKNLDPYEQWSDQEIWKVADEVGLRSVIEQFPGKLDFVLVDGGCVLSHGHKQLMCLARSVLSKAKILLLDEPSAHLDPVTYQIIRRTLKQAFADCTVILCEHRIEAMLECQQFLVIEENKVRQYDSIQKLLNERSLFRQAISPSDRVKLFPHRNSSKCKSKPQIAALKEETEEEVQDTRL

| Structure (SMILES) | EC30 |
| --- | --- |
| Cc1cc(C)c(Oc2nc(C3CCC(C)(C)CC3)ccc2C(=O)NS(=O)(=O)c2ccc[nH]c2=O)c(C)c1 [Compound 1091, 6-(4,4-dimethylcyclohexyl)-N-[(2-oxo-1H-pyridin-3-yl)sulfonyl]-2-(2,4,6-trimethylphenoxy)pyridine-3-carboxamide] | +++ (“+++” means <3 uM) |
| CC(C)Oc1ccc(-c2ccc(C(=O)NS(=O)(=O)c3cccc(N)n3)c(N3CCC(Oc4ccccc4)C3)n2)cn1 (centres unmarked) [Compound 1092, N-[(6-amino-2-pyridyl)sulfonyl]-6-(6-isopropoxy-3-pyridyl)-2-(3-phenoxypyrrolidin-1-yl)pyridine-3-carboxamide] | ++ (“++” means between 3 uM and 10 uM) |
| Cc1cc(C)c(CN2CCc3ccccc3CC2C(=O)NS(=O)(=O)c2ccccn2)c(C)c1 (centres unmarked) [Compound 1093, N-(2-pyridylsulfonyl)-3-[(2,4,6-trimethylphenyl)methyl]-1,2,4,5-tetrahydro-3-benzazepine-4-carboxamide] | ++ (“++” means between 3 uM and 10 uM) |
| CC(C)COc1ccc(-c2ccc(C(=O)NS(=O)(=O)c3cccc(N)n3)c(N3CCC(C)CC3)n2)cc1 [Compound 1094, N-[(6-amino-2-pyridyl)sulfonyl]-6-(4-isobutoxyphenyl)-2-(4-methyl-1-piperidyl)pyridine-3-carboxamide] | +++ (“+++” means <3 uM) |
| Cc1cc(C)c(Oc2nc(-c3cccc(Cl)c3)ccc2C(=O)NS(=O)(=O)c2ccc[nH]c2=O)c(C)c1 [Compound 1095, 6-(3-chlorophenyl)-N-[(2-oxo-1H-pyridin-3-yl)sulfonyl]-2-(2,4,6-trimethylphenoxy)pyridine-3-carboxamide] | ++ (“++” means between 3 uM and 10 uM) |
| CCOc1cc(F)cc(-c2ccc(C(=O)NS(=O)(=O)c3ccc[nH]c3=O)c(N3[C@H](C)CC[C@@H]3C)n2)c1 [Compound 1096, 2-[(2R,5S)-2,5-dimethylpyrrolidin-1-yl]-6-(3-ethoxy-5-fluoro-phenyl)-N-[(2-oxo-1H-pyridin-3-yl)sulfonyl]pyridine-3-carboxamide] | ++ (“++” means between 3 uM and 10 uM) |
| CC(C)COc1cc(F)cc(-c2ccc(C(=O)NS(=O)(=O)c3cccc(N)n3)c(N3CCC[C@H]3C(C)(C)C)n2)c1 [Compound 1097, N-[(6-amino-2-pyridyl)sulfonyl]-2-[(2S)-2-tert-butylpyrrolidin-1-yl]-6-(3-fluoro-5-isobutoxy-phenyl)pyridine-3-carboxamide] | +++ (“+++” means <3 uM) |
| CC(C)COc1cc(F)cc(-c2ccc(C(=O)NS(=O)(=O)c3cccc(N)n3)c(N3CCCC(C(C)C)C3)n2)c1 (centres unmarked) [Compound 1098, N-[(6-amino-2-pyridyl)sulfonyl]-6-(3-fluoro-5-isobutoxy-phenyl)-2-(3-isopropyl-1-piperidyl)pyridine-3-carboxamide] | +++ (“+++” means <3 uM) |
| CCOc1cc(F)cc(-c2ccc(C(=O)NS(=O)(=O)c3cccc(N)n3)c(N3CC(C)CC3(C)C)n2)c1 (centres unmarked) [Compound 1099, N-[(6-amino-2-pyridyl)sulfonyl]-6-(3-ethoxy-5-fluoro-phenyl)-2-(2,2,4-trimethylpyrrolidin-1-yl)pyridine-3-carboxamide] | +++ (“+++” means <3 uM) |
| CC1CN(c2nc(-c3ccc(Cl)cc3)ccc2C(=O)NS(=O)(=O)c2cccc(N)n2)C(C)(C)C1 (centres unmarked) [Compound 1100, N-[(6-amino-2-pyridyl)sulfonyl]-6-(4-chlorophenyl)-2-(2,2,4-trimethylpyrrolidin-1-yl)pyridine-3-carboxamide] | +++ (“+++” means <3 uM) |
| Cc1cc(C)c(CN2C(C(=O)NS(=O)(=O)c3cccc(N)n3)c3ccccc3C2(C)C)c(C)c1 (centres unmarked) [Compound 1101, N-[(6-amino-2-pyridyl)sulfonyl]-3,3-dimethyl-2-[(2,4,6-trimethylphenyl)methyl]isoindoline-1-carboxamide] | +++ (“+++” means <3 uM) |
| Cc1cc(C)c(Oc2nc(-c3ccccc3)cc(C)c2C(=O)NS(=O)(=O)c2cccc(N)n2)c(C)c1 [Compound 1102, N-[(6-amino-2-pyridyl)sulfonyl]-4-methyl-6-phenyl-2-(2,4,6-trimethylphenoxy)pyridine-3-carboxamide] | +++ (“+++” means <3 uM) |
| Cc1cc(C)c(Oc2nc(-c3cnn(CC(C)C)c3)ccc2C(=O)NS(=O)(=O)c2nccnc2N)c(C)c1 [Compound 1103, N-(3-aminopyrazin-2-yl)sulfonyl-6-(1-isobutylpyrazol-4-yl)-2-(2,4,6-trimethylphenoxy)pyridine-3-carboxamide] | +++ (“+++” means <3 uM) |
| Cc1cc(F)ccc1Oc1nc(C(C)(C)C)ccc1C(=O)NS(=O)(=O)c1cccc(N)n1 [Compound 1104, N-[(6-amino-2-pyridyl)sulfonyl]-6-tert-butyl-2-(4-fluoro-2-methyl-phenoxy)pyridine-3-carboxamide] | +++ (“+++” means <3 uM) |
| CC(C)COc1cc(F)cc(-c2ccc(C(=O)NS(=O)(=O)c3cccc(N)n3)c(OC3CCCCC3C)n2)c1 (centres unmarked) [Compound 1108, N-[(6-amino-2-pyridyl)sulfonyl]-6-(3-fluoro-5-isobutoxy-phenyl)-2-(2-methylcyclohexoxy)pyridine-3-carboxamide] | +++ (“+++” means <3 uM) |
| CC(C)COc1ccc(F)c(-c2ccc(C(=O)NS(=O)(=O)c3cccc(N)n3)c(N3CCC(C)CC3)n2)c1 [Compound 1109, N-[(6-amino-2-pyridyl)sulfonyl]-6-(2-fluoro-5-isobutoxy-phenyl)-2-(4-methyl-1-piperidyl)pyridine-3-carboxamide] | ++ (“++” means between 3 uM and 10 uM) |
| CC(C)COc1cc(F)cc(-c2ccc(C(=O)NS(=O)(=O)c3ccn[nH]3)c(N3CCC(C)(C)CC3)n2)c1 [Compound 1110, 2-(4,4-dimethyl-1-piperidyl)-6-(3-fluoro-5-isobutoxy-phenyl)-N-(1H-pyrazol-5-ylsulfonyl)pyridine-3-carboxamide] | +++ (“+++” means <3 uM) |
| CC(C)COc1cc(F)cc(-c2ccc(C(=O)NS(=O)(=O)c3cccc(N)n3)c(N(C)C3CC3)n2)c1 [Compound 1117, N-[(6-amino-2-pyridyl)sulfonyl]-2-[cyclopropyl(methyl)amino]-6-(3-fluoro-5-isobutoxy-phenyl)pyridine-3-carboxamide] | +++ (“+++” means <3 uM) |
| CC(C)COc1cc(F)cc(-c2ccc(C(=O)NS(=O)(=O)c3ccn[nH]3)c(N3CC(C)OC(C)C3)n2)c1 (centres unmarked) [Compound 1119, 2-(2,6-dimethylmorpholin-4-yl)-6-(3-fluoro-5-isobutoxy-phenyl)-N-(1H-pyrazol-5-ylsulfonyl)pyridine-3-carboxamide] | ++ (“++” means between 3 uM and 10 uM) |

Results, then the compound that gave them:

| EC30 | Structure (SMILES) |
| --- | --- |
| + (“+” means greater than 10 uM) | Cc1cc(C)c(Oc2nc(-c3cccc(OCC4CC4)c3)ccc2C(=O)NS(=O)(=O)c2ccc[nH]c2=O)c(C)c1 [Compound 1105, 6-[3-(cyclopropylmethoxy)phenyl]-N-[(2-oxo-1H-pyridin-3-yl)sulfonyl]-2-(2,4,6-trimethylphenoxy)pyridine-3-carboxamide] |
| + (“+” means greater than 10 uM) | Cc1cc(C)c(Cn2nc(C(C)(C)C)cc2C(=O)NS(=O)(=O)c2cccnc2N)c(C)c1 [Compound 1106, N-[(2-amino-3-pyridyl)sulfonyl]-5-tert-butyl-2-[(2,4,6-trimethylphenyl)methyl]pyrazole-3-carboxamide] |
| +++ (“+++” means <3 uM) | CC(C)Oc1ccc(-c2ccc(C(=O)NS(=O)(=O)c3cccc(N)n3)c(N3CC4CCCC4C3)n2)cn1 (centres unmarked) [Compound 1107, 2-(3,3a,4,5,6,6a-hexahydro-1H-cyclopenta[c]pyrrol-2-yl)-N-[(6-amino-2-pyridyl)sulfonyl]-6-(6-isopropoxy-3-pyridyl)pyridine-3-carboxamide] |
| +++ (“+++” means <3 uM) | COc1ccc(C#N)cc1-c1ccc(C(=O)NS(=O)(=O)c2cccc(N)n2)c(Oc2c(C)cc(C)cc2C)n1 [Compound 1111, N-[(6-amino-2-pyridyl)sulfonyl]-6-(5-cyano-2-methoxy-phenyl)-2-(2,4,6-trimethylphenoxy)pyridine-3-carboxamide] |
| ++ (“++” means between 3 uM and 10 uM) | CC(C)Oc1ccc(-c2ccc(C(=O)NS(=O)(=O)c3cccc(N)n3)c(N3CCC(c4ccccc4)C3)n2)cn1 (centres unmarked) [Compound 1112, N-[(6-amino-2-pyridyl)sulfonyl]-6-(6-isopropoxy-3-pyridyl)-2-(3-phenylpyrrolidin-1-yl)pyridine-3-carboxamide] |
| +++ (“+++” means <3 uM) | Cc1cc(C)c(Oc2nc(-c3ccc(OCc4ccccc4)cc3F)ccc2C(=O)NS(=O)(=O)c2cccc(N)n2)c(C)c1 [Compound 1113, N-[(6-amino-2-pyridyl)sulfonyl]-6-(4-benzyloxy-2-fluoro-phenyl)-2-(2,4,6-trimethylphenoxy)pyridine-3-carboxamide] |
| + (“+” means greater than 10 uM) | COc1cncc(-c2ccc(C(=O)NS(=O)(=O)c3cccc(N)n3)c(Oc3c(C)cc(C)cc3C)n2)c1 [Compound 1115, N-[(6-amino-2-pyridyl)sulfonyl]-6-(5-methoxy-3-pyridyl)-2-(2,4,6-trimethylphenoxy)pyridine-3-carboxamide] |
| ++ (“++” means between 3 uM and 10 uM) | COCC1CCCN(c2nc(-c3ccc(OC(C)C)nc3)ccc2C(=O)NS(=O)(=O)c2cccc(N)n2)C1 (centres unmarked) [Compound 1116, N-[(6-amino-2-pyridyl)sulfonyl]-6-(6-isopropoxy-3-pyridyl)-2-[3-(methoxymethyl)-1-piperidyl]pyridine-3-carboxamide] |
| +++ (“+++” means <3 uM) | CCc1cccc(-c2ccc(C(=O)NS(=O)(=O)c3cccc(N)n3)c(Oc3c(C)cc(C)cc3C)n2)c1 [Compound 1118, N-[(6-amino-2-pyridyl)sulfonyl]-6-(3-ethylphenyl)-2-(2,4,6-trimethylphenoxy)pyridine-3-carboxamide] |
| +++ (“+++” means <3 uM) | Cc1cc(C)c(Oc2nc(-c3ccccc3C)ccc2C(=O)NS(=O)(=O)c2cccc(N)n2)c(C)c1 [Compound 1120, N-[(6-amino-2-pyridyl)sulfonyl]-6-(o-tolyl)-2-(2,4,6-trimethylphenoxy)pyridine-3-carboxamide] |
